Results on 20 molecules are retold here after US8846737B2, “Compound” (Sterix Limited, priority 2009, dated 2014).

As a reminder, the IC50 is the concentration needed to halve the response being measured. A lower IC50 goes with higher potency.

One assay has as its system rats. Particulars: cited from earlier work.
Another assay deals with T1, steroid sulphatase (Homo sapiens, UniProt P08842).
T1 sequence (P08842 22-583): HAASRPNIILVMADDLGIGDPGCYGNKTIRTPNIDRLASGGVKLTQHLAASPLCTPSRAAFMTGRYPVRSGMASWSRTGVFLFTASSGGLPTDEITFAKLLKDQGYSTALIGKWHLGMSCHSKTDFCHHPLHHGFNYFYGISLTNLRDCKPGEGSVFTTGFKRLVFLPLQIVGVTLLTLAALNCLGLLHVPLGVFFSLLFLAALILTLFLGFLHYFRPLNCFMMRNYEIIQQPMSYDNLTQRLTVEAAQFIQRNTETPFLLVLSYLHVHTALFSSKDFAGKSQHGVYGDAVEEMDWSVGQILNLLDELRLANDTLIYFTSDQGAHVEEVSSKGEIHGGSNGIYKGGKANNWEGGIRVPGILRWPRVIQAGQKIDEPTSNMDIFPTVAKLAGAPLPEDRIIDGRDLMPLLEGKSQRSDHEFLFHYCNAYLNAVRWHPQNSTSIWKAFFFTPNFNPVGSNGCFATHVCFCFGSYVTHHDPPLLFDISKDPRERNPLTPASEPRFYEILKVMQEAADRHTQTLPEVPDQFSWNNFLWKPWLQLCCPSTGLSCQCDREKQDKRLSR
Particulars: compared with EMATE; cited from earlier work.

For the next assay, the target named is T2, Aromatase (Homo sapiens, UniProt P11511).
T2 construct: host or cells: JEG3 choriocarcinoma cells, intact monolayers
T2 sequence (P11511 1-503): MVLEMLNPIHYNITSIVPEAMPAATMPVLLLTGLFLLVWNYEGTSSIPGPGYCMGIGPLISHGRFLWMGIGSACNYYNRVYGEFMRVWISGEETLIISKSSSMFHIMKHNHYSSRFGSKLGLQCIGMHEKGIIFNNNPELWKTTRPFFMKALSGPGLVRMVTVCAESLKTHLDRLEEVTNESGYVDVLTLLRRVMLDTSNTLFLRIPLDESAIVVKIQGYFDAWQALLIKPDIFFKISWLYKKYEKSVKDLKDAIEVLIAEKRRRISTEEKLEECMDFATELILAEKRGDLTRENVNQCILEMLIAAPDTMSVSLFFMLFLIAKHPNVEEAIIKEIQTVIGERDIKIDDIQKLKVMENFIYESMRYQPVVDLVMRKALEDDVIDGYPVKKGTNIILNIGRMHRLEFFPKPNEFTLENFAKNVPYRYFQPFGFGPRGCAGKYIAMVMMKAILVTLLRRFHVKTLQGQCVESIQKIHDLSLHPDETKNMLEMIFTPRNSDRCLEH
Nature of the assay: Aromatase activity in JEG3 cells (Protocol 6). In kind it is cell-based. Conditions: intact JEG3 cells, [1β-3H]androstenedione, 30 min. The method, then:
Assay for Determining Aromatase Activity Using JEG3 Cells
Aromatase activity is measured in JEG3 choriocarcinoma cells, obtained from the ATCC. […] During the aromatase reaction, ^3H2O is liberated which can be quantified using a liquid scintillation spectrometer. […] The number of cell nuclei per flask is determined using a Coulter Counter after treating the cell monolayers with Zaponin.
Aromatase inhibition was measured in accordance with Protocol 6.

A further assay concerns the target T3, Steroid sulphatase (STS) (Homo sapiens, UniProt P08842).
T3 construct: host or cells: JEG3 choriocarcinoma cells, intact monolayers
T3 sequence (P08842 22-583): T1 sequence (P08842 22-583)
Nature of the assay: Inhibition of steroid sulphatase activity in JEG3 cells (Protocol 1). In kind it is cell-based. Particulars: intact JEG3 cells, [6,7-3H]oestrone-3-sulphate, 3-4 hours. On the procedure:
Assay for Determining STS Activity Using Cancer Cells
Inhibition of Steroid Sulphatase Activity in JEG3 Cells
Steroid sulphatase activity is measured in vitro using intact JEG3 choriocarcinoma cells.
Cells are maintained in Minimal Essential Medium (MEM) containing 20 mM HEPES, 5% foetal bovine serum, 2 mM glutamine, non-essential amino acids and 0.075% sodium bicarbonate. Up to 30 replicate 25 cm^2 tissue culture flasks are seeded with approximately 1×10^5 cells/flask using the above medium Cells are grown to 80% confluency and the medium is changed every third day.
Intact monolayers of JEG3 cells in triplicate 25 cm^2 tissue culture flasks are washed with Earle's Balanced Salt Solution (EBSS) and incubated for 3-4 hours at 37° C. with 5 pmol (7×10^5 dpm) [6, 7-3H]oestrone-3-sulphate (specific activity 60 Ci/mmol) in serum-free MEM (2.5 ml) together with oestrone-3-sulphamate (11 concentrations: 0; 1fM; 0.01 pM; 0.1 pM, 1 pM; 0.01 nM; 0.1 nM; 0.01 mM; 0.1 mM; 1 mM). After incubation each flask is cooled and the medium (1 ml) is pipetted into separate tubes containing [14C]oestrone (7×10^3 dpm) (specific activity 97 Ci/mmol). The mixture is shaken thoroughly for 30 seconds with toluene (5 ml) Experiments have shown that >90% [14C]oestrone and <0 1% [3H]oestrone-3-sulphate is removed from the aqueous phase by this treatment A portion (2 ml) of the organic phase is removed, evaporated and the 3H and 14C content of the residue determined by scintillation spectrometry The mass of oestrone-3-sulphate hydrolysed was calculated from the 3H counts obtained (corrected for the volumes of the medium and organic phase used, and for recovery of [14C] oestrone added) and the specific activity of the substrate Each batch of experiments includes incubations of microsomes prepared from a sulphatase-positive human placenta (positive control) and flasks without cells (to assess apparent non-enzymatic hydrolysis of the substrate). The number of cell nuclei per flask is determined using a Coulter Counter after treating the cell monolayers with Zaponin One flask in each batch is used to assess cell membrane status and viability using the Trypan Blue exclusion method (Phillips, H J. (1973) In: Tissue culture and applications, [eds: Kruse, D. F. & Patterson, M. K]; pp 406-408; Academic Press, New York)
Results for steroid sulphatase activity are expressed as the mean±1S.D. of the total product (oestrone+oestradiol) formed during the incubation period (3-4 hours) calculated for […] and, for values showing statistical significance, as a percentage reduction (inhibition) over incubations containing no oestrone-3-sulphamate. Unpaired Student's t-test was used to test the statistical significance of results
Sterioid sulphatase inhibition was measured in accordance with Protocol 1

A further assay concerns the target T4, E1-STS (Homo sapiens, UniProt P08842).
T4 construct: host or cells: intact MCF-7 cells (endogenous enzyme)
T4 sequence (P08842 22-583): T1 sequence (P08842 22-583)
Particulars: intact MCF-7 cells, at 0.1 nM; cited from earlier work.

Some results are limits rather than exact numbers.

As to `COc1cc2c(cc1OS(N)(=O)=O)CC[C@@H]1[C@@H]2CC[C@]2(C)C(=O)CC[C@@H]12` [2-methoxyoestrone-3-O-sulphamate], in the assay with rats (rat, in vivo), the oestrogenicity entry is “devoid of oestrogenicity”. Further, the “potency as steroid sulphatase inhibitor” value on steroid sulphatase is recorded as “equipotent with EMATE”.

Consider `N#Cc1ccc(N(Cc2ccc(OS(N)(=O)=O)c(Br)c2)n2cnnc2)cc1-c1ccsc1` [Compound 9], for which the IC50 at Aromatase was determined as 2.6 ± 0.2 nM; at Steroid sulphatase (STS), 3.9 ± 0.8 nM.

Regarding `N#Cc1ccc(N(Cc2ccc(OS(N)(=O)=O)cc2)n2cnnc2)cc1N1CCCCCC1=O` [Compound 11], the IC50 is 850 ± 104 nM at Aromatase and 1300 ± 265 nM at Steroid sulphatase (STS).

In the case of `N#Cc1ccc(N(Cc2ccc(OS(N)(=O)=O)cc2)n2cnnc2)cc1Cc1ccccc1` [Compound 13], the figures for the IC50 on Aromatase and on Steroid sulphatase (STS) were less than 0.1 nM and 41 ± 3 nM, respectively.

In the case of `N#Cc1ccc(N(Cc2ccc(OS(N)(=O)=O)cc2)n2cnnc2)cc1N1CCCC1` [Compound 15], the IC50 on Aromatase was less than 0.1 nM; at Steroid sulphatase (STS), 60 ± 7 nM.

As for `N#Cc1ccc(N(Cc2ccc(OS(N)(=O)=O)cc2)n2cnnc2)cc1N1CCCCC1` [Compound 17], the IC50 came to 3.4 ± 0.2 nM against Aromatase and 43 ± 6 nM at Steroid sulphatase (STS).

With `N#Cc1ccc(N(Cc2ccc(OS(N)(=O)=O)cc2)n2cnnc2)cc1N1CCCCCC1` [Compound 19], the IC50 on Aromatase worked out at 3.2 ± 0.1 nM; on Steroid sulphatase (STS) it was 181 ± 8 nM.

As for `CN1CCN(c2cc(N(Cc3ccc(OS(N)(=O)=O)cc3)n3cnnc3)ccc2C#N)CC1` [Compound 23], the IC50 at Aromatase was determined as 89 ± 10.2 nM; at Steroid sulphatase (STS), 2800 ± 985 nM.

Turning to `N#Cc1ccc(N(CCC(=O)c2ccc(OS(N)(=O)=O)cc2)n2cnnc2)cc1-c1ccccc1` [Compound 29], the figures for the IC50 against Aromatase and against Steroid sulphatase (STS) were less than 0.1 nM and 1150 ± 50 nM, respectively.

For the molecule `N#Cc1ccc(N(Cc2ccc(OS(N)(=O)=O)cc2F)n2cnnc2)cc1-c1ccccc1` [Compound 31], the IC50 against Aromatase worked out at 1.43 ± 0.55 nM; against Steroid sulphatase (STS), 0.15 ± 0.03 nM.

For `N#Cc1ccc(N(Cc2ccc(OS(N)(=O)=O)cc2)n2ccnc2)cc1-c1ccccc1` [Compound 32], the results for the IC50 against Aromatase and at Steroid sulphatase (STS) were less than 0.1 nM and 9.7 ± 4.2 nM, respectively.

With `N#Cc1ccc(N(Cc2ccc(OS(N)(=O)=O)c(F)c2F)n2cnnc2)cc1-c1ccccc1` [Compound 34], the half-inhibitory concentration (IC50) on Aromatase was found to be 0.8 ± 0.3 nM; at Steroid sulphatase (STS) it was 2.8 ± 0.9 nM.

Take `COc1ccc(-c2cc(N(Cc3c(F)cc(OS(N)(=O)=O)cc3F)n3cnnc3)ccc2C#N)cc1` [Compound 36]: the IC50 against Aromatase is less than 0.1 nM; against Steroid sulphatase (STS) it was 0.1 nM.

On to `N#Cc1ccc(N(Cc2ccc(OS(N)(=O)=O)cc2)n2cnnc2)cc1CN1CCCC1` [Compound 41], for which the IC50 turned out to be 97 ± 2.7 nM against Aromatase and 4360 ± 554 nM at Steroid sulphatase (STS).

For `COc1ccc(Cc2cc(N(Cc3ccc(OS(N)(=O)=O)cc3)n3cnnc3)ccc2C#N)cc1` [Compound 45], the IC50 was determined as 40.7 ± 4.5 nM at Aromatase and 292 ± 80 nM at Steroid sulphatase (STS).

Take `N#Cc1ccc(N(Cc2c(F)cc(OS(N)(=O)=O)cc2F)n2cnnc2)cc1-c1ccc(F)cc1` [Compound 47]: the IC50 against Aromatase was 5.6 ± 0.1 nM; at Steroid sulphatase (STS), 14 ± 0.87 nM.

In the case of `N#Cc1ccc(N(Cc2ccc(OS(N)(=O)=O)cc2)n2cnnc2)cc1-c1ccncc1` [Compound 51], the IC50 stood at 36 ± 1.7 nM at Aromatase and 198 ± 37 nM on Steroid sulphatase (STS).

Regarding `N#Cc1ccc(N(Cc2ccc(OS(N)(=O)=O)cc2)n2cnnc2)cc1Oc1ccccc1` [Compound 57], the IC50 stood at 12.5 ± 2.3 nM at Aromatase and 62 ± 13 nM against Steroid sulphatase (STS).

In the case of `CC12CCC3c4ccc(OS(N)(=O)=O)cc4CCC3C1CCC2=O` (stereo not shown) [EMATE, oestrone-3-sulphamate], the “inhibition of E1-STS activity” value at E1-STS was “more than 99%”. Moreover, the “oral uterotrophic activity relative to estradiol” value in the assay on rats (rats, oral) is listed as 100 times.

Turning to `N#Cc1ccc(N(Cc2c(F)cc(OS(N)(=O)=O)cc2F)n2cnnc2)cc1-c1ccccc1` [PMW04153, 4-(((6-Cyanobiphenyl-3-yl)(4H-1,2,4-triazol-4-yl)amino)methyl)-3,5-difluorophenyl sulfamate], the IC50 against Aromatase was less than 0.1 nM; against Steroid sulphatase (STS) it was 0.12 ± 0.02 nM.
